“And” between values parts separate entries of the source, which are not always exact repeats. Equal entries are not always repeated. Non-standard residues stand in square brackets, D forms with d. Residues, ends and D or L forms follow the SMILES beside them. *: point of attachment. X1 = O=C(Cn1cc(CCCF)nn1)NCC1OC(C(=O)*)C(O)C(O)C1O
Tests used:
[1] = target: T1, Integrin αvβ3 expressing U87MG cells (Homo sapiens, UniProt P05106+P06756); assay: Cell-based integrin receptor-binding competition assay against fluorescent compound 21; details: 10 nM compound 21, 2 hrs, FIG. 4
T1 construct: Integrin αvβ3 expressing U87MG cells; endogenous in cells; host or cells: U87MG
Procedure: After incubation, cells were washed three times to eliminate unbound cyclic peptides. Fluorescence readings (RLU) were then taken (excitation at 491 nm, emission at 518 nm, cutoff 515 nm). Fluorescence signals of wells without cyclic peptides were set as 100% and used as control. […] All treatments were carried out in triplicates.

integrin αvβ3 [2] = target: T2, integrin αvβ3 (Homo sapiens, UniProt P05106+P06756); assay: Binding affinity to integrin αvβ3, summary statements (FIG. 1-4); details: general statement
Procedure: Compound 20 was immobilized onto a CM5 chip (Supplier: Biacore. CM5 is a SPR chip with a carboxymethylated dextran covalently attached to a gold surface) via amine coupling. Intergrin αvβ3 samples at 50 nM concentration, premixed with a wide range of concentrations of RGD test compound (0˜2000 nM), were flowed through the CM5 chip at 14° C.
The interactions between the flowing integrin αvβ3 sample and the surface of the chip were recorded by Biacore sensorgram signals. Flow cell #1 served as blank control and the flow cell #2 were coated with compound 20. After subtraction the blank signal of flow cell #1 from the signal of flow cell #2, the resulting sensorgram signals from each cycle were converted into percentage values and the Kd and IC50 values for each cyclopeptides were calculated.
Inhibitory effects of cyclic peptides were quantified by measuring their effects on the interactions between immobilized integrin and biotinylated soluble ligand. Integrin αvβ3 was immobilized on a 96 well plate. […] The wells were incubated with alkaline-phsphatase substrate and the intensities of yellow color product were measured in plate reader. […]
Integrin αvβ3 expressing U87MG cells were incubated with a series of concentration of cyclic peptides (0.01, 0.1, 1, 10, 100, 1000, 10000 nM) in the presence of 10 nM of green fluorescence labeled compound 21 for 2 hrs. […]

FIG. 5 = assay: FIG. 5
Procedure: Table printed on a drawing sheet, FIG. 5
The patent's description of the figure: FIG. 5 is a microPET imaging of Compound 19 in a U87MG xenograft mouse model at 1 hour post-injection.
First reader's note: Tissue uptake from the microPET image beside the table; rows are the right-side (RS) tumor, the left-side (LS) tumor and muscle.

[3] = tested on: U87MG human glioblastoma tumor xenograft; type: in vivo, mouse
Procedure: PET Studies: In vivo microPET imaging of a tumor-bearing mouse is performed on an anesthetized mouse bearing tumor xenograft of U87MG human glioblastoma after administration of the test imaging cyclic peptides. Animals are induced with 5% isoflurane/oxygen until anesthetized and then maintained on 2-2.5% isoflurane/oxygen inhalation for the duration of each PET scanning procedure (up to 2 hours). Anesthetized animals are placed on a heated pad for the duration of each PET scan. Animals are scanned at 1 hour post-injection for 30 min.

[4] = cited from earlier work
integrin αvβ3 [5] = target: T2, integrin αvβ3; details: background statement; cited from earlier work
[6] = tested on: A431 human squamous cell carcinoma model; details: integrin negative cell line A431; cited from earlier work
M21 melanoma xenograft = details: integrin-positive M21 melanoma xenograft; cited from earlier work
tumor = details: in vivo, cited from earlier work
[7] = comparison among cyclic peptides 4, 1 and RGDfK
[8] = comparison of cyclic peptides 18 and 23

With `N=C(N)NCCC[C@@H]1NC(=O)[C@H](CCCCN)NC(=O)[C@@H](Cc2ccccc2)NC(=O)[C@H](CC(=O)O)NC(=O)[C@H](CO)NC1=O` [Compound 1] (cyclo(D[dF]KRS)) the “potency (competition of binding)” value [1, 7] was “very similar in potency”.

With `C[C@@H]1NC(=O)[C@H](CCCNC(=N)N)NC(=O)[C@H](CCCCN)NC(=O)[C@@H](Cc2ccccc2)NC(=O)[C@H](CC(=O)O)NC1=O` [Compound 4] (cyclo(RAD[dF]K)) the “potency (competition of binding)” value [1, 7] was “very similar in potency” and the “binding affinity to integrin αvβ3” value (integrin αvβ3 [2]) was “high binding affinity”.

In the case of `C[C@@H]1NC(=O)[C@H](CCCNC(=N)N)NC(=O)[C@H](CCCCNC(=O)C2OC(CNC(=O)Cn3cc(CCCF)nn3)C(O)C(O)C2O)NC(=O)[C@@H](Cc2ccccc2)NC(=O)[C@H](CC(=O)O)NC1=O` (some centres unmarked) [Compound 18] (cyclo(AD[dF]K(X1)R)), the “potency (competition of binding)” value [1, 8] is reported as “very similar in potency” and the “binding affinity to integrin αvβ3” value (integrin αvβ3 [2]) is reported as “high binding affinity”.

In the case of `C[C@@H]1NC(=O)[C@H](CCCNC(=N)N)NC(=O)[C@H](CCCCNC(=O)C2O[C@H](CNC(=O)Cn3cc(CCC[18F])nn3)[C@H](O)C(O)[C@@H]2O)NC(=O)[C@@H](Cc2ccccc2)NC(=O)[C@H](CC(=O)O)NC1=O` (some centres unmarked) [Compound 19], the “%ID/g” value (FIG. 5) is reported as 0.042 %ID/g and 0.034 %ID/g and 0.025 %ID/g, the “tumor uptake and retention” value ([3]; microPET, 1 hour post-injection, FIG. 5) is reported as “good tumor uptake and retention” and the “wash-out rate from muscle and other healthy tissues” value ([3]; mouse, in vivo) is reported as “fast wash-out rate”.

With `C[C@@H]1NC(=O)[C@H](CCCNC(=N)N)NC(=O)[C@H](CCCCNC(=O)CCN(CCC(=O)NCCCC[C@@H]2NC(=O)[C@@H](Cc3ccccc3)NC(=O)[C@H](CC(=O)O)NC(=O)[C@H](C)NC(=O)[C@H](CCCNC(=N)N)NC2=O)C(=O)CCOCCOCCOCCOCCNC(=O)n2cc(CCCF)nn2)NC(=O)[C@@H](Cc2ccccc2)NC(=O)[C@H](CC(=O)O)NC1=O` [Compound 23] the “potency (competition of binding)” value [1, 8] was “very similar in potency”.

For `CC([18F])C(=O)NC[C@H]1OC(C(=O)NCCCC[C@@H]2NC(=O)[C@@H](Cc3ccccc3)NC(=O)[C@H](CC(=O)O)NC(=O)CNC(=O)[C@H](CCCNC(=N)N)NC2=O)[C@@H](O)C(O)C1O` (some centres unmarked) [[^18F]Galacto-RGD], the “tumor standard uptake values” ([4]; background statement) is listed as “modest tumor standard uptake values”, the “tracer accumulation in organs” value ([4]; both preclinical models and human studies) is listed as “prominent tracer accumulation in the liver, kidneys, spleen, and intestines” and the integrin binding affinity (integrin αvβ3 [5]) is listed as “relatively low integrin binding affinity”. For the same compound, the tracer localization [6] was “did not localize on tumor cells” and the tumor uptake (M21 melanoma xenograft) was “integrin αvβ3-specific tumor uptake”.

For c(RGDyV), the tumor uptake (tumor; 125I-labeled peptide) is listed as “receptor-specific tumor uptake”, the excretion (tumor) is listed as “unfavorable hepatobiliary excretion” and the tumor washout (tumor) is listed as “rapid tumor washout”.
